“Also recorded” adds a separate entry of the source. Where two headings read alike, the source gives them in different places.
Assays:
[1] = Plasma protein binding, dog plasma; assay type: in vitro ADME; conditions: read-out: plasma protein binding rate (converted)
Protocol: (§1) The PPB rate in dogs was about 40% at different concentrations in the concentration range (50–400 ng/mL), and in rats it was about 75%. The PPB rate in human plasma varied greatly at different concentrations, ranging from 100% at a low drug concentration to 58% at a high drug concentration, as shown in Table 4.

[2] = Plasma protein binding, human plasma; assay type: in vitro ADME; conditions: mean, read-out: plasma protein binding rate (converted)
Protocol: as §1

[3] = Tissue distribution in rats; assay type: in vivo; conditions: S-IG 13 mg/kg
Protocol: The male and female rats were euthanized by femoral artery bleeding under anesthesia after the single-dose intragastric administration of HY-071085 (13 mg/kg) for 10 min, 45 min and 4 h, and the tissues were separated for the analysis of the concentration of HY-071085 in the homogenate.
Tissue distribution in rats: Rats were randomly allocated into three groups (10 rats/group) for the tissue distribution studies. These rats were sacrificed at 10 min, 45 min and 4 h after orally administering HY-071085. Fourteen organs—the heart, liver, spleen, lung, kidney, stomach, gut, muscle, fat, skin, brain, ovary (female), womb (female) and testis (male)—were removed, washed in normal saline, and dried with filter papers immediately. The organs were accurately weighed and individually homogenized with an appropriate amount of deionized water. The tissue homogenate was stored at –80 °C until analysis.

[4] = parameters: method as in earlier work; conditions: Temp 25℃; cited from earlier work
[5] = Pharmacokinetics after single-dose intragastric administration in rats; assay type: in vivo, Sprague Dawley rats; conditions: for bioavailability / MRT / AUC / AUC(0-inf) / CL/F / Tmax / Cmax / half-life / Vd/F: rat, plasma; for bioavailability: 3.25 mg/kg intragastric vs intravenous, from AUCs, read-out: absolute oral bioavailability; for AUC: read-out: AUC0-tn; for Vd/F: read-out: Vss/F
Protocol: Blood samples were collected from the fundus venous plexus at various times within 8 h after administration in order to analyze the concentration of HY-071085 in plasma.
The profiles of the mean plasma concentration of HY-071085 versus time after a single dose in rats are presented in Figure 2 and Figure 3, and the PK parameters are listed in Table 1. […] At the three doses, the AUCtn ratios of the female rats and male rats were 3.5, 3.9 and 2.4, respectively. The AUCtn ratio among male rats was 1:5.16:41.06, and among female rats was 1:5.71:28.20.
In vivo PK profiling in the rats: Sprague Dawley rats (approximately 177–221 g in weight) were purchased from Shanghai Xipur-Bikai Experimental Animal Co., Ltd. (Shanghai, China). Before the experiment, several rats were randomly divided into several groups, half males and half females in each group, fasting but free to drink water for 12 h. The dosage of the rats was dependent on the drug pharmacology: the HY-071085 active pharmaceutical ingredients were administered with a dosage volume of 0.25 mL/100 g body weight. The whole-blood samples were centrifuged at 8000 rpm for 5 min, and the plasma samples were separated and stored at –80 °C until the analysis.
According to the obtained plasma concentration time data, the pharmacokinetic parameters were calculated using Phoenix WinNonlin 8.1 software. The pharmacokinetic parameters—i.e., the area under the curve (AUC), mean residence time (MRT), clearance rate (Cl/F) and steady-state apparent distribution volume (Vss/F)—were calculated by the method of moments, which was estimated according to the following formulae: AUCtn=∑Ci+Ci−1ti−ti−1/2 AUC∞=AUCtn+Cm/λ AUMCtn=∑tiCi+ti−1Ci−1ti−ti−1/2 AUMC∞=AUMCtn+Ctntn/λ+1/λ^2 MRT=AUMC∞/AUC∞ Cl/F=Dose/AUC Vss/F=Cl∗MRT where Ctn is the plasma concentration of tn at the last point after administration, and the elimination rate constant was obtained by ln(concentration) time linear regression.
Due to the drug having significant individual differences in rats, it could not be uniformly fitted with a PK atrioventricular model; as such, the pharmacokinetic parameters analyzed in this study were calculated using a non-atrioventricular model. The pharmacokinetic parameters are defined as follows: Cmax is the maximum blood concentration after administration and absorption, Tmax is the time required to reach Cmax, t1/2 is the time required to eliminate half of the plasma drug concentration after the drug distribution in the body reaches equilibrium, Cl/F is the apparent clearance rate, AUC0-tn is the area under the blood concentration time curve within the dosing interval, AUC0-∞ is the area under the plasma concentration time curve from 0 to infinity, MRT is the average time that all drug molecules stay in the body, and Vss/F is the steady-state apparent distribution volume, which is the product of the clearance rate and average residence time.

[6] = Stability in rat plasma under storage conditions; assay type: in vitro ADME; conditions: for stability in plasma, accuracy: n=5
Protocol: The stability of HY-071085 in rat plasma was evaluated by analyzing five repeated QC samples under various storage conditions: long-term freezing (freezing at −80 °C for 30 days), repeated freezing and thawing (thawing with a 37 °C water bath after freezing at −80 °C, repeated three times), normal temperature placement (a 37 °C constant temperature water bath for 8 h), and injector placement (4 °C for 24 h).

[7] = Sprague Dawley, po, female rats, S-IG 3.25 mg/kg
[8] = Sprague Dawley, po, female rats, S-IG 6.5 mg/kg
[9] = Sprague Dawley, po, female rats, S-IG 13 mg/kg
[10] = Sprague Dawley, po, male rats, S-IG 3.25 mg/kg
[11] = Sprague Dawley, po, male rats, S-IG 6.5 mg/kg
[12] = Sprague Dawley, po, male rats, S-IG 13 mg/kg
[13] = Sprague-Dawley, po, female rats, S-IG 3.25 mg/kg
[14] = Sprague-Dawley, po, female rats, S-IG 6.5 mg/kg
[15] = Sprague-Dawley, po, female rats, S-IG 13 mg/kg
[16] = Sprague-Dawley, po, male rats, S-IG 3.25 mg/kg
[17] = Sprague-Dawley, po, male rats, S-IG 6.5 mg/kg
[18] = Sprague-Dawley, po, male rats, S-IG 13 mg/kg

SMILES: CC1(C)OC2CC(=O)OCC23C1C/C(=N\OCCN1CCOCC1)C1(C)C3CC[C@@]2(C)[C@H](c3ccoc3)OC(=O)C3OC312 (stereo partly drawn) [HY-071085, (12S,12aS,E)-12-(furan-3-yl)-6,6,8a,12a-tetramethyl-8-((2-morpholinoethoxy)imino)dodecahydro-1H,3H-oxireno [2,3-d]pyrano [4’,3’:3,3a]isobenzofuro [5,4-f]isochromene-3,10(9aH)-dione]
- fraction unbound at 50 ng/mL ([1]; 50 ng/mL, mean): 0.622
- fraction unbound at 100 ng/mL ([1]; 100 ng/mL, mean): 0.671
- fraction unbound at 200 ng/mL ([1]; 200 ng/mL, mean): 0.578
- fraction unbound at 400 ng/mL ([1]; 400 ng/mL, mean): 0.545
- fraction unbound ([1]; dog, dogs, concentration range 50–400 ng/mL): ~0.6
- fraction unbound at 100 ng/mL ([2]; 100 ng/mL): 0.267
- fraction unbound at 200 ng/mL ([2]; 200 ng/mL): 0.325
- fraction unbound at 400 ng/mL ([2]; 400 ng/mL): 0.384
- concentration in the brain [3]: extremely low
- tissue distribution ([3]; 10 min, 45 min and 4 h): mainly distributed in the gastric, intestine, liver, spleen, lung and kidney tissues; also recorded: mainly distributed in most of the tissues except the brain
- logP [4]: 2.8023
- AUCtn ratio of female rats and male rats ([5]; S-IG 3.25 mg/kg): 3.5
- AUCtn ratio of female rats and male rats ([5]; S-IG 6.5 mg/kg): 3.9
- AUCtn ratio of female rats and male rats ([5]; S-IG 13 mg/kg): 2.4
- bioavailability ([5]; Sprague Dawley, oral, male rats): 2.83%
- bioavailability ([5]; Sprague Dawley, po, female rats): 10.8%
- MRT [5, 7]: 4.06 ± 0.82 h
- AUC [5, 7]: 73.7 ± 25.3 ng·h/mL
- AUC(0-inf) [5, 8]: 429 ± 204 ng·h/mL
- CL/F [5, 8]: 302 mL/min/kg
- MRT [5, 8]: 2.57 ± 0.64 h
- AUC [5, 8]: 421 ± 205 ng·h/mL
- MRT [5, 9]: 2.29 ± 0.92 h
- Tmax [5, 9]: 0.95 ± 0.51 h
- AUC [5, 9]: 2080 ± 407 ng·h/mL
- bioavailability ([5]; Sprague Dawley, po, male rats): 2.8%
- MRT [5, 10]: 3.48 ± 1.98 h
- AUC [5, 10]: 20.8 ± 3.01 ng·h/mL
- AUC(0-inf) [5, 11]: 125 ± 72.3 ng·h/mL
- CL/F [5, 11]: 1180 mL/min/kg
- MRT [5, 11]: 2.89 ± 1.87 h
- AUC [5, 11]: 108 ± 54.2 ng·h/mL
- MRT [5, 12]: 1.94 ± 0.39 h
- AUC [5, 12]: 855 ± 290 ng·h/mL
- Cmax [5, 13]: 20.4 ± 9.08 ng/mL
- Tmax [5, 13]: 0.7 ± 0.73 h
- half-life [5, 13]: 2.16 ± 1.13 h
- Cmax [5, 14]: 145 ± 64.5 ng/mL
- Tmax [5, 14]: 0.9 ± 0.68 h
- half-life [5, 14]: 1.3 ± 0.36 h
- Vd/F [5, 14]: 36.3 ± 23.2 L/kg
- Cmax [5, 15]: 761 ± 322 ng/mL
- half-life [5, 15]: 0.9 ± 0.42 h
- Cmax [5, 16]: 11.3 ± 4.54 ng/mL
- Tmax [5, 16]: 0.22 ± 0.04 h
- half-life [5, 16]: 2.35 ± 1.27 h
- Cmax [5, 17]: 107 ± 139 ng/mL
- Tmax [5, 17]: 0.45 ± 0.59 h
- half-life [5, 17]: 1.98 ± 1.04 h
- Vd/F [5, 17]: 172 ± 70.3 L/kg
- Cmax [5, 18]: 381 ± 152 ng/mL
- Tmax [5, 18]: 0.85 ± 0.45 h
- half-life [5, 18]: 1.21 ± 0.31 h
- drug exposure of female rats relative to male rats ([5]; single-dose intragastric administration): about three times
- stability in plasma, accuracy ([6]; injector (24h, 4 °C), 2 ng/mL): 105.00%
- stability in plasma, accuracy ([6]; injector (24h, 4 °C), 800 ng/mL): 101.55%
- stability in plasma, accuracy ([6]; long-term freezing (−80 °C, 30 days), 2 ng/mL): 112.40%
- stability in plasma, accuracy ([6]; long-term freezing (−80 °C, 30 days), 800 ng/mL): 101.50%
- stability in rat plasma ([6]; long-term freezing, repeated freezing and thawing, 37 °C 8 h, injector 4 °C 24 h): stable
- stability in plasma, accuracy ([6]; normal temperature (8h), 2 ng/mL): 105.90%
- stability in plasma, accuracy ([6]; normal temperature (8h), 800 ng/mL): 97.70%
- stability in plasma, accuracy ([6]; repeated freeze-thaw (three times), 2 ng/mL): 97.40%
- stability in plasma, accuracy ([6]; repeated freeze-thaw (three times), 800 ng/mL): 97.33%

— paper PMC9316000, “Preclinical Drug Pharmacokinetic, Tissue Distribution and Excretion Profiles of the Novel Limonin Derivate HY-071085 as an Anti-Inflammatory and Analgesic Candidate in Rats and Beagle Dogs” (Pharmaceuticals, 2022)
